What was measured:
Format in all cases: functional, cell-based
RD = assay: Antiproliferative activity against human RD cells assessed as cell growth inhibition measured after 72 hrs by MTT assay
SGC-7901 [1] = assay: Cytotoxicity against human SGC-7901 cells assessed as reduction in cell viability measured after 48 hrs by MTT colorimetric assay; conditions: SGC-7901, 48 h
HeLa [2] = assay: Antiproliferative activity against human HeLa cells assessed as reduction in cell growth measured after 48 hrs by MTT assay
MCF7 [3] = assay: Antiproliferative activity against human MCF7 cells assessed as inhibition of cell growth incubated for 24 hrs by MTT assay; conditions: MCF7, 24 h
SGC-7901 [4] = assay: Antiproliferative activity against human SGC-7901 cells assessed as cell growth inhibition
MDA-MB-453 = assay: Antiproliferative activity against human MDA-MB-453 cells assessed as reduction in cell growth after 72 hrs by MTT assay; conditions: MDA-MB-453, 72 h
MDA-MB-231 = assay: Antiproliferative activity against human MDA-MB-231 cells assessed as cell growth inhibition
MCF7 [5] = assay: Antiproliferative activity against human MCF7 cells assessed as cell growth inhibition incubated for 6 days by SRB assay; conditions: MCF7, 144 h
SMMC-7721 = assay: Antiproliferative activity against human SMMC-7721 cells assessed as reduction in cell growth by SRB assay
CAMA-1 = assay: Antiproliferative activity against human CAMA-1 cells assessed as cell growth inhibition
SK-BR-3 = assay: Antiproliferative activity against human SK-BR-3 cells incubated for 72 hrs by MTT assay; conditions: SK-BR-3, 72 h
Hep 3B2 = assay: Cytotoxicity against human Hep3B cells assessed as inhibition of cell growth by MTT assay
A2780 = assay: Antiproliferative activity against human A2780 cells assessed as inhibition of cell growth
HeLa [6] = assay: Cytotoxicity against human HeLa cells assessed as reduction in cell viability
A549 = assay: Antiproliferative activity against human A549 cells assessed as cell growth inhibition measured after 72 hrs by MTT assay; conditions: A549, 72 h
Bel-7402 = assay: Cytotoxicity against human Bel-7402 cells measured after 72 hrs by MTT assay; conditions: Bel-7402, 72 h
MCF7 [7] = assay: Antiproliferative activity against human MCF7 cells assessed as cell growth inhibition measured after 72 hrs by MTT assay; conditions: MCF7, 72 h
PC-3 = assay: Cytotoxicity against human PC-3 cells assessed as reduction in cell viability
LoVo = assay: Cytotoxicity against human LoVo cells incubated for 72 hrs by MTT assay
HepG2 = assay: Antiproliferative activity against human HepG2 cells assessed as inhibition of cell proliferation after 72 hrs by MTT assay; conditions: HepG2, 72 h
[8] = Antiproliferative activity against human CaLo cells assessed as reduction in cell viability
C-33-A = assay: Antiproliferative activity against human C-33-A cells assessed as reduction in cell viability measured after 48 hrs by MTT assay
SiHa = assay: Antiproliferative activity against human SiHa cells assessed as inhibition of cell growth by MTT assay

With `CC(=O)O[C@H]1C(=O)[C@@]2(C)[C@H]([C@H](OC(=O)c3ccccc3)[C@]3(O)C[C@H](OC(=O)[C@H](O)[C@@H](NC(=O)c4ccccc4)c4ccccc4)C(C)=C1C3(C)C)[C@]1(OC(C)=O)CO[C@@H]1C[C@@H]2O` [PACLITAXEL] the IC50 (RD) was over 10 µM and the IC50 (SGC-7901 [1]) was 14.3 µM.
With `O=C(c1cc2ccc(Cl)cc2n1Cc1cccc2ccccc12)N(CCO)[C@@H]1CC(=O)N2C[C@@H]3CCCN4CCC[C@@H]([C@H]34)[C@H]2C1` the IC50 (HeLa [2]) was 0.9 µM, the IC50 (MCF7 [3]) was 1.2 µM and the IC50 (SGC-7901 [4]) was 1.1 µM.
With `CC[C@@]1(O)C(=O)OCc2c1cc1n(c2=O)Cc2cc3ccccc3nc2-1` [CAMPTOTHECIN] the IC50 (MDA-MB-453) was under 0.01 µM, the IC50 (MDA-MB-231) was under 0.01 µM and the IC50 (MCF7 [5]) was under 0.01 µM. The IC50 (SMMC-7721) was 3.95 µM, the IC50 (CAMA-1) was 0.07 µM and the IC50 (SK-BR-3) was under 0.01 µM.
For `O=C(/C=C(O)/C=C/c1c[nH]c2ccccc12)/C=C/c1c[nH]c2ccccc12`, the IC50 (Hep 3B2) was 14 µM.
With `COc1cc(C2CCCCc3c2ccc2c3ccn2C)cc(OC)c1OC` (stereo not drawn) the IC50 (A2780) was 0.037 µM, the IC50 (HeLa [6]) was 0.056 µM and the IC50 (A549) was 0.022 µM. The IC50 (Bel-7402) was 0.039 µM, the IC50 (MCF7 [7]) was 0.051 µM and the IC50 (PC-3) was 0.047 µM. The IC50 (LoVo) was 0.049 µM.
With `COc1cc(/C=N/NC(=O)c2cn(Cc3ccccc3)c3ccccc23)cc(OC)c1OC` the IC50 (HepG2) was 0.00063 µM.
Compound `O=C1C(Cl)=C(NC(Cc2c[nH]c3ccccc23)C(=O)O)C(=O)c2ccccc21` (stereo not drawn) has an IC50 [8] of 2.69 µM, an IC50 (C-33-A) of 0.003 µM and an IC50 (SiHa) of 3.2 µM.

— ChEMBL document CHEMBL5356986, “Research status of indole-modified natural products” (RSC Med Chem, 2023)
